The molecules below were run against T1, FLK-1 receptor (Mus musculus, UniProt P35918) (assay: FLK-1 ELISA (kinase activity of the FLK-1 receptor in FLK-1/NIH3T3 cells, VEGF stimulated)).
T1 construct: expressed in transfected cells; host or cells: NIH3T3 C7#3
Format: cell-based
Parameters: concentration or dose not given beside the values
Summary of the method: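 An ELISA using affinity-purified rabbit anti-FLK-1 antiserum on anti-rabbit IgG-coated plates measured VEGF-stimulated FLK-1 kinase activity. NIH3T3 C7#3 cells carrying FLK-1 were serum-starved (0.1% FBS) overnight, then exposed to compound (final 1:200 dilution, 0.5% DMSO) for two hours at 37 °C.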

T1 sequence (P35918 20-1345): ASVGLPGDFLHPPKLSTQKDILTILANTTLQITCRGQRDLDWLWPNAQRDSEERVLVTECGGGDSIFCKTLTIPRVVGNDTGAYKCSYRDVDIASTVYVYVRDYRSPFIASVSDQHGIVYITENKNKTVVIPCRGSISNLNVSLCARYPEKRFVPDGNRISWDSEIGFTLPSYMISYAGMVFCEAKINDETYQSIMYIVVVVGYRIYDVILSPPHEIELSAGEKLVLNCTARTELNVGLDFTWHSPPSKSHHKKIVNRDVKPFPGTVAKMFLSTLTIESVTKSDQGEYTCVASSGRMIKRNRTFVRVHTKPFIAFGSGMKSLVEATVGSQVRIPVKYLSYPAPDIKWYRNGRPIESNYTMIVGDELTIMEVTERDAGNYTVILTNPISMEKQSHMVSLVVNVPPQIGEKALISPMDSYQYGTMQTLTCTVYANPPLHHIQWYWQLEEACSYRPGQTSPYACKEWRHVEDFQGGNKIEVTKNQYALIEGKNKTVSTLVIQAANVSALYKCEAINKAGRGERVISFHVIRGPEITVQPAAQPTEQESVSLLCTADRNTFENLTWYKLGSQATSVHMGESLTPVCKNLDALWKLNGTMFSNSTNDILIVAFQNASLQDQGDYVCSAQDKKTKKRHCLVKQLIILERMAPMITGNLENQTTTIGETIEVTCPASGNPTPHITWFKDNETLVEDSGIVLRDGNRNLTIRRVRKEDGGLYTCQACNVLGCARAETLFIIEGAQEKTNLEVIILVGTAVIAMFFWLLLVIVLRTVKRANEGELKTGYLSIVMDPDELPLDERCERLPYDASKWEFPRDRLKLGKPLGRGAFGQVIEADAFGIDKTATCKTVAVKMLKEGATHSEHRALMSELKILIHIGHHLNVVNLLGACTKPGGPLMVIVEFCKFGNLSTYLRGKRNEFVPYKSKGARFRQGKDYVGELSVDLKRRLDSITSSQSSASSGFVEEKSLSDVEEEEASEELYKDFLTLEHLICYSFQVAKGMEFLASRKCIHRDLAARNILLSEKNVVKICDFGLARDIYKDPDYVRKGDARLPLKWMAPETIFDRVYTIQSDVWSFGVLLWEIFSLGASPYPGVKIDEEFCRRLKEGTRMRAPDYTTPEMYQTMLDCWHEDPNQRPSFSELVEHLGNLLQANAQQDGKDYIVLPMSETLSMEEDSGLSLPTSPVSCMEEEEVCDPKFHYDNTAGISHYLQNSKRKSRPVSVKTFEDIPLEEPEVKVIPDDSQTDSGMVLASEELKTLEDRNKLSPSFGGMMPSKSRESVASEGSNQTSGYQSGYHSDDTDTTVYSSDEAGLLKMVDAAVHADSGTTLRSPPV

**Q.** How did the “Fik Kinase %Inhibition” value turn out when `O=C1Nc2c(Br)cc(Br)cc2C1=Cc1ccc[nH]1` [10717/A09] was run?
**A.** -3.9%

**Q.** Which “Fik Kinase %Inhibition” value does the source give for `CCOC(=O)CCc1c(C(=O)OCC)[nH]c(C=C2C(=O)Nc3ccc(Br)c(C)c32)c1CC(=O)OCC` [10718/C05] here?
**A.** 20.5%

**Q.** How did the “Fik Kinase %Inhibition” value turn out when `CCOC(=O)c1cc(C=C2C(=O)Nc3ccc(Br)c(C)c32)oc1C` [10718/C06] was run?
**A.** 16.8%

**Q.** For `COC(=O)c1[nH]c(C)c(C=C2C(=O)Nc3ccc(Br)c(C)c32)c1C(=O)OC` [10718/C07], which “Fik Kinase %Inhibition” value is on record?
**A.** 6.3%

**Q.** With `Cc1c(Br)ccc2c1C(=Cc1ccc(Cl)c([N+](=O)[O-])c1)C(=O)N2` [10718/C08] as the molecule, how does the “Fik Kinase %Inhibition” value read?
**A.** 19.6%

**Q.** With `Cc1c(O)ccc(C=C2C(=O)Nc3ccc(Br)c(C)c32)c1O` [10718/C09] as the molecule, how does the “Fik Kinase %Inhibition” value read?
**A.** 5.3%

**Q.** For `O=C1Nc2ccc(S(=O)(=O)N3CCOCC3)cc2C1=Cc1coc2c(Br)cc(Br)cc2c1=O` [10730/F09], which “Fik Kinase %Inhibition” value is on record?
**A.** 14.4%

**Q.** With `COC1CC(C=C2C(=O)Nc3ccc(S(=O)(=O)N4CCOCC4)cc32)C(OC)O1` (stereo not shown) [10730/F10] as the molecule, how does the “Fik Kinase %Inhibition” value read?
**A.** 13.4%

**Q.** Which “Fik Kinase %Inhibition” value does the source give for `Cc1cc(C=C2C(=O)Nc3ccc(S(=O)(=O)N4CCOCC4)cc32)oc1C` [10730/F11] here?
**A.** -1.3%

**Q.** For `COc1ccc(C=C2C(=O)Nc3ccc(CCCl)cc32)c(OC)c1OC` [10730/G02], which “Fik Kinase %Inhibition” value is on record?
**A.** 23.3%

**Q.** How did the “Fik Kinase %Inhibition” value turn out when `COc1cc(OC)c(OC)cc1C=C1C(=O)Nc2ccc(CCCl)cc21` [10730/G03] was run?
**A.** 15.2%

**Q.** With `COc1cc(C=C2C(=O)Nc3ccc(CCCl)cc32)cc(OC)c1OC` [10730/G04] as the molecule, how does the “Fik Kinase %Inhibition” value read?
**A.** 7.4%

**Q.** Which “Fik Kinase %Inhibition” value does the source give for `CC(=O)n1cc(C=C2C(=O)Nc3ccc(CCCl)cc32)c2ccccc21` [10730/G05] here?
**A.** 22.3%

**Q.** `O=C1Nc2ccc(CCCl)cc2C1=Cc1ccc(-c2ccccc2Cl)o1` [10730/G07] was tested. Which “Fik Kinase %Inhibition” value did it give?
**A.** 8.3%

**Q.** How did the “Fik Kinase %Inhibition” value turn out when `O=C1Nc2ccc(CCCl)cc2C1=Cc1cc2ccccc2nc1Cl` [10730/G08] was run?
**A.** 23.3%

**Q.** Which “Fik Kinase %Inhibition” value does the source give for `COC1CC(C=C2C(=O)Nc3ccc(CCCl)cc32)C(OC)O1` (stereo not shown) [10730/G10] here?
**A.** 11.3%

**Q.** How did the “Fik Kinase %Inhibition” value turn out when `Cc1cc(C=C2C(=O)Nc3ccc(CCCl)cc32)oc1C` [10730/G11] was run?
**A.** -1.4%

**Q.** `CCn1c2ccccc2c2cc(C=C3C(=O)Nc4c(Br)cc(Br)cc43)ccc21` [10731/A02] was tested. Which “Fik Kinase %Inhibition” value did it give?
**A.** 2.7%

**Q.** Which “Fik Kinase %Inhibition” value does the source give for `Cc1cc2occ(C=C3C(=O)Nc4c(Br)cc(Br)cc43)c(=O)c2cc1C` [10731/A03] here?
**A.** 2.5%

**Q.** Which “Fik Kinase %Inhibition” value does the source give for `C=C(C)C1CC=C(C=C2C(=O)Nc3c(Br)cc(Br)cc32)CC1` (stereo not shown) [10731/A04] here?
**A.** 5.0%

**Q.** For `CC(C)c1ccc2occ(C=C3C(=O)Nc4c(Br)cc(Br)cc43)c(=O)c2c1` [10731/A05], which “Fik Kinase %Inhibition” value is on record?
**A.** -6.5%

**Q.** For `Cc1ccc2occ(C=C3C(=O)Nc4c(Br)cc(Br)cc43)c(=O)c2c1` [10731/A06], which “Fik Kinase %Inhibition” value is on record?
**A.** -5.5%

**Q.** With `O=C1Nc2c(Br)cc(Br)cc2C1=Cc1coc2ccc([N+](=O)[O-])cc2c1=O` [10731/A07] as the molecule, how does the “Fik Kinase %Inhibition” value read?
**A.** -4.3%

**Q.** Which “Fik Kinase %Inhibition” value does the source give for `O=C1Nc2c(Br)cc(Br)cc2C1=Cc1c[nH]c(=O)[nH]c1=O` [10731/A08] here?
**A.** -13.8%

**Q.** For `COc1ccc2[nH]cc(C=C3C(=O)Nc4c(Br)cc(Br)cc43)c2c1` [10731/A09], which “Fik Kinase %Inhibition” value is on record?
**A.** -2.7%

**Q.** `CN1C(=O)C(=C2C(=O)Nc3c(Br)cc(Br)cc32)c2ccccc21` [10731/A10] was tested. Which “Fik Kinase %Inhibition” value did it give?
**A.** -5.3%

**Q.** `CCn1c2ccccc2c2cc(C=C3C(=O)Nc4ccc(I)cc43)ccc21` [10731/B02] was tested. Which “Fik Kinase %Inhibition” value did it give?
**A.** 6.5%

**Q.** For `Cc1cc2occ(C=C3C(=O)Nc4ccc(I)cc43)c(=O)c2cc1C` [10731/B03], which “Fik Kinase %Inhibition” value is on record?
**A.** 1.9%

**Q.** `C=C(C)C1CC=C(C=C2C(=O)Nc3ccc(I)cc32)CC1` (stereo not shown) [10731/B04] was tested. Which “Fik Kinase %Inhibition” value did it give?
**A.** 12.0%

**Q.** With `CC(C)c1ccc2occ(C=C3C(=O)Nc4ccc(I)cc43)c(=O)c2c1` [10731/B05] as the molecule, how does the “Fik Kinase %Inhibition” value read?
**A.** 3.8%

**Q.** Which “Fik Kinase %Inhibition” value does the source give for `Cc1ccc2occ(C=C3C(=O)Nc4ccc(I)cc43)c(=O)c2c1` [10731/B06] here?
**A.** 6.2%

**Q.** With `O=C1Nc2ccc(I)cc2C1=Cc1coc2ccc([N+](=O)[O-])cc2c1=O` [10731/B07] as the molecule, how does the “Fik Kinase %Inhibition” value read?
**A.** 11.7%

**Q.** How did the “Fik Kinase %Inhibition” value turn out when `O=C1Nc2ccc(I)cc2C1=Cc1c[nH]c(=O)[nH]c1=O` [10731/B08] was run?
**A.** 6.2%

**Q.** For `COc1ccc2[nH]cc(C=C3C(=O)Nc4ccc(I)cc43)c2c1` [10731/B09], which “Fik Kinase %Inhibition” value is on record?
**A.** -0.5%

**Q.** Which “Fik Kinase %Inhibition” value does the source give for `CN1C(=O)C(=C2C(=O)Nc3ccc(I)cc32)c2ccccc21` [10731/B10] here?
**A.** 1.3%

**Q.** `CCn1c2ccccc2c2cc(C=C3C(=O)Nc4ccc(Br)c(C)c43)ccc21` [10731/C02] was tested. Which “Fik Kinase %Inhibition” value did it give?
**A.** 3.1%

**Q.** With `Cc1cc2occ(C=C3C(=O)Nc4ccc(Br)c(C)c43)c(=O)c2cc1C` [10731/C03] as the molecule, how does the “Fik Kinase %Inhibition” value read?
**A.** 4.5%

**Q.** Which “Fik Kinase %Inhibition” value does the source give for `C=C(C)C1CC=C(C=C2C(=O)Nc3ccc(Br)c(C)c32)CC1` (stereo not shown) [10731/C04] here?
**A.** 10.5%

**Q.** `Cc1c(Br)ccc2c1C(=Cc1coc3ccc(C(C)C)cc3c1=O)C(=O)N2` [10731/C05] was tested. Which “Fik Kinase %Inhibition” value did it give?
**A.** 14.9%

**Q.** `Cc1ccc2occ(C=C3C(=O)Nc4ccc(Br)c(C)c43)c(=O)c2c1` [10731/C06] was tested. Which “Fik Kinase %Inhibition” value did it give?
**A.** 13.8%

**Q.** For `Cc1c(Br)ccc2c1C(=Cc1coc3ccc([N+](=O)[O-])cc3c1=O)C(=O)N2` [10731/C07], which “Fik Kinase %Inhibition” value is on record?
**A.** 70.4%

**Q.** With `Cc1c(Br)ccc2c1C(=Cc1c[nH]c(=O)[nH]c1=O)C(=O)N2` [10731/C08] as the molecule, how does the “Fik Kinase %Inhibition” value read?
**A.** 10.2%

**Q.** With `COc1ccc2[nH]cc(C=C3C(=O)Nc4ccc(Br)c(C)c43)c2c1` [10731/C09] as the molecule, how does the “Fik Kinase %Inhibition” value read?
**A.** 15.1%

**Q.** With `Cc1c(Br)ccc2c1C(=C1C(=O)N(C)c3ccccc31)C(=O)N2` [10731/C10] as the molecule, how does the “Fik Kinase %Inhibition” value read?
**A.** 19.7%

**Q.** How did the “Fik Kinase %Inhibition” value turn out when `CCn1c2ccccc2c2cc(C=C3C(=O)Nc4ccc(S(=O)(=O)NC)cc43)ccc21` [10731/D02] was run?
**A.** -8.4%

**Q.** With `CNS(=O)(=O)c1ccc2c(c1)C(=Cc1coc3cc(C)c(C)cc3c1=O)C(=O)N2` [10731/D03] as the molecule, how does the “Fik Kinase %Inhibition” value read?
**A.** 17.3%

From patent publication EP1247803A2, “Indolinone compounds suitable for modulation of protein kinases” (Sugen, Inc., priority 1996, dated 1998)
